Molecular target: bovine cardiac myofibrils (full-length cardiac myosin ATPase in the native sarcomere) (Bos taurus (Bovine), UniProt Q9BE39)
Experiment: Skinned bovine cardiac myofibril ATPase assay (PK/LDH-coupled)
Type: biochemical
Conditions: Ca2+ activating to 75% of maximal rate; for CDMF75 IC15: concentration giving 15% inhibition; for IC50: read-out: CDMF75 IC50
Outline: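 Triton-skinned bovine left-ventricle myofibrils (1 mg/mL) in PM 12 buffer (12 mM PIPES, 2 mM MgCl2, pH 6.8) with 50 μM ATP, 0.6 mM EGTA and CaCl2 set for 50% or 75% activation. Steady-state ATPase inhibition followed by PK/LDH-coupled NADH oxidation at 340 nm.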

Sequence of bovine cardiac myofibrils (full-length cardiac myosin ATPase in the native sarcomere) (Q9BE39 whole entry): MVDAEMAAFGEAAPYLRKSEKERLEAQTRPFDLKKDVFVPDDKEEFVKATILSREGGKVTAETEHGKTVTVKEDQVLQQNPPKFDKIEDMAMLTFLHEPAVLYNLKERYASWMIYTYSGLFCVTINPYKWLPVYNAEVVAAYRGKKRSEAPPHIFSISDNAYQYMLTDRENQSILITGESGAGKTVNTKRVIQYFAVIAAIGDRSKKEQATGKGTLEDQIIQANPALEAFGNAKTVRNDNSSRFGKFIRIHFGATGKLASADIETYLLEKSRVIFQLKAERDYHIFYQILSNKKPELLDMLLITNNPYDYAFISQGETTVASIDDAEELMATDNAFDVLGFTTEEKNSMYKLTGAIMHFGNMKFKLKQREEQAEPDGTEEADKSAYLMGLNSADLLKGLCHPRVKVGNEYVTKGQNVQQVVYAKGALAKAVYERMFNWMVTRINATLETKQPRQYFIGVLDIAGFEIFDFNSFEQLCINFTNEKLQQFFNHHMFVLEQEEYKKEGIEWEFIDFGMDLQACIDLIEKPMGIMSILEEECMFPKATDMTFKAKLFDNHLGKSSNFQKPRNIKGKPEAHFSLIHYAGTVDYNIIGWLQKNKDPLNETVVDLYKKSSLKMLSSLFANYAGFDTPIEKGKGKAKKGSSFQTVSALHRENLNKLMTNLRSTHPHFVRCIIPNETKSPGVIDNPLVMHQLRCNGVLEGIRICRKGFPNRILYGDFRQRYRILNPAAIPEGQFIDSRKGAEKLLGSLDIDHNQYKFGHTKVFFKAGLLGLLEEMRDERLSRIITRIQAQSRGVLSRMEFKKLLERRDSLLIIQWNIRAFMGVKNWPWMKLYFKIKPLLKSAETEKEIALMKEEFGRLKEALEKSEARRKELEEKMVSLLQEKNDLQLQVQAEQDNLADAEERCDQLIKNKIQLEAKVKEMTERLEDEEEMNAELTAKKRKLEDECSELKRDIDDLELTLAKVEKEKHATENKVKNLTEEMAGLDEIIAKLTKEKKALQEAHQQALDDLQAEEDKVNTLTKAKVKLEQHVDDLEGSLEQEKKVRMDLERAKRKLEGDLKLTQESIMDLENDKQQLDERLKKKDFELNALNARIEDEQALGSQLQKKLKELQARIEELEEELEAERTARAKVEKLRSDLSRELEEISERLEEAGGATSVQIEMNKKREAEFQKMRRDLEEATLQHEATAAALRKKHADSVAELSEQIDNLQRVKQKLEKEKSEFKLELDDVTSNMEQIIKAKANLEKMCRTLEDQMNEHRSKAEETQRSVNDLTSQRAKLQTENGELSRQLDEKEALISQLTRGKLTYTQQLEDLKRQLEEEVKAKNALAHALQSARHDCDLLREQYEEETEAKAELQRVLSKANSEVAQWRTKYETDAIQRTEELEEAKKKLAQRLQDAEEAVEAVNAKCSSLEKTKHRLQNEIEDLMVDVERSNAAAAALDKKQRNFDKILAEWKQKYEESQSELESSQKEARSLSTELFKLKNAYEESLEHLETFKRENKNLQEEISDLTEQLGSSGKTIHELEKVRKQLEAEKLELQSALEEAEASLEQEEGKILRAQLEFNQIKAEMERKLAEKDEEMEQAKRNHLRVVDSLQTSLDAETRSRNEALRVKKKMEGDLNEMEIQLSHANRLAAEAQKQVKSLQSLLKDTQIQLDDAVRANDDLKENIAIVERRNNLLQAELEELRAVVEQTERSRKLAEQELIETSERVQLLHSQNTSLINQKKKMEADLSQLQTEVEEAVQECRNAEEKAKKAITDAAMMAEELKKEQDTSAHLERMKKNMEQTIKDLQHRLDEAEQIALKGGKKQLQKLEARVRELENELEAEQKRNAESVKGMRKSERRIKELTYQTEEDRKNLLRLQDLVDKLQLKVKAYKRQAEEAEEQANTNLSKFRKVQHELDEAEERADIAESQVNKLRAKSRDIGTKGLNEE
Sequence of bovine cardiac myofibrils (full-length cardiac myosin ATPase in the native sarcomere) (P85100 whole entry partner): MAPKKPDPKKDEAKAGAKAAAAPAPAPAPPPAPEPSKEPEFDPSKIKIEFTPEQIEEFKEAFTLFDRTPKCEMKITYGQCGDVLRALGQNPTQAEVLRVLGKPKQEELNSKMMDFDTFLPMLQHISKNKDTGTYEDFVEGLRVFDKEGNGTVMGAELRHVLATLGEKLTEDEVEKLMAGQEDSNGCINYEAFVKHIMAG
Sequence of bovine cardiac myofibrils (full-length cardiac myosin ATPase in the native sarcomere) (Q3SZE5 whole entry partner): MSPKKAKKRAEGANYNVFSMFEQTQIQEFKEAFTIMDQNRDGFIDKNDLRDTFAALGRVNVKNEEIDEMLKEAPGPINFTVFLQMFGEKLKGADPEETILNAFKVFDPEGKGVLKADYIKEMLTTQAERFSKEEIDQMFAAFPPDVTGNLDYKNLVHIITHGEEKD

Compound	CDMF75 IC15 [µM]	IC50 [µM]
O=C(NC1CCc2cc(-c3noc(C(F)F)n3)ccc21)c1ccnc(O)c1 (stereo not shown) [Compound 95, N-(5-(5-(difluoromethyl)-1,2,4-oxadiazol-3-yl)-2,3-dihydro-1H-inden-1-yl)-2-hydroxyisonicotinamide]	1.9	8
Nc1cc(C(=O)NC2CCc3cc(-c4noc(C(F)F)n4)ccc32)ccn1 (stereo not shown) [Compound 99, 2-amino-N-(5-(5-(difluoromethyl)-1,2,4-oxadiazol-3-yl)-2,3-dihydro-1H-inden-1-yl)isonicotinamide]	0.6	2.6
Cc1conc1C(=O)NC1CCc2cc(-c3noc(C(F)F)n3)ccc21 (stereo not shown) [Compound 104, N-(5-(5-(difluoromethyl)-1,2,4-oxadiazol-3-yl)-2,3-dihydro-1H-inden-1-yl)-4-methylisoxazole-3-carboxamide]	1.7	6.3
CCc1nc(-c2cnc3c(c2)CCC3NC(=O)c2ccnc(C)c2)no1 (stereo not shown) [Compound 108, N-(3-(5-ethyl-1,2,4-oxadiazol-3-yl)-6,7-dihydro-5H-cyclopenta[b]pyridin-7-yl)-2-methylisonicotinamide]	5.2	24
COCc1nc(-c2ccc3c(c2)CC[C@H]3NC(=O)c2oncc2C)no1 [Compound 114, (R)-N-(5-(5-(methoxymethyl)-1,2,4-oxadiazol-3-yl)-2,3-dihydro-1H-inden-1-yl)-4-methylisoxazole-5-carboxamide]	0.5	2
Cc1cnoc1C(=O)N[C@@H]1CCc2cc(-c3noc(C4CC4)n3)ccc21 [Compound 115, (R)-N-(5-(5-cyclopropyl-1,2,4-oxadiazol-3-yl)-2,3-dihydro-1H-inden-1-yl)-4-methylisoxazole-5-carboxamide]	0.3	0.9
Cc1cnoc1C(=O)N[C@@H]1CCc2cc(-c3noc(C4COC4)n3)ccc21 [Compound 117, (R)-4-methyl-N-(5-(5-(oxetan-3-yl)-1,2,4-oxadiazol-3-yl)-2,3-dihydro-1H-inden-1-yl)isoxazole-5-carboxamide]	1.9	10.1
Cn1cnc(C(=O)NC2CCc3cc(-c4noc(C(F)F)n4)ccc32)n1 (stereo not shown) [Compound 118, N-(5-(5-(difluoromethyl)-1,2,4-oxadiazol-3-yl)-2,3-dihydro-1H-inden-1-yl)-1-methyl-1H-1,2,4-triazole-3-carboxamide]	19.3	> 39.2
Cn1nccc1C(=O)NC1COc2cc(-c3noc(C(F)F)n3)ccc21 (stereo not shown) [Compound 123, N-(6-(5-(difluoromethyl)-1,2,4-oxadiazol-3-yl)-2,3-dihydrobenzofuran-3-yl)-1-methyl-1H-pyrazole-5-carboxamide]	0.5	1.7
Cc1nc(-c2ccc3c(c2)CC[C@H]3NC(=O)c2ccc3[nH]c(=O)[nH]c3c2)no1 [Compound 125, (R)-N-(5-(5-methyl-1,2,4-oxadiazol-3-yl)-2,3-dihydro-1H-inden-1-yl)-2-oxo-2,3-dihydro-1H-benzo[d]imidazole-5-carboxamide]	1.6	6.2
CO[C@@H](C)c1nc(-c2ccc3c(c2)CC[C@H]3NC(=O)c2oncc2C)no1 [Compound 126, N-((R)-5-(5-((S)-1-methoxyethyl)-1,2,4-oxadiazol-3-yl)-2,3-dihydro-1H-inden-1-yl)-4-methylisoxazole-5-carboxamide]	1.6	5.7
Cc1noc(C(=O)NC2CCc3cc(-c4noc(C(F)F)n4)ccc32)n1 (stereo not shown) [Compound 127, N-(5-(5-(difluoromethyl)-1,2,4-oxadiazol-3-yl)-2,3-dihydro-1H-inden-1-yl)-3-methyl-1,2,4-oxadiazole-5-carboxamide]	1.7	7.7
Cc1nocc1C(=O)NC1CCc2cc(-c3noc(C(F)F)n3)ccc21 (stereo not shown) [Compound 129, N-(5-(5-(difluoromethyl)-1,2,4-oxadiazol-3-yl)-2,3-dihydro-1H-inden-1-yl)-3-methylisoxazole-4-carboxamide]	0.5	1.5
Cc1cc(C(=O)NC2CCc3cc(-c4nc(C)no4)ccc32)ccn1 (stereo not shown) [Compound 130, 2-methyl-N-(5-(3-methyl-1,2,4-oxadiazol-5-yl)-2,3-dihydro-1H-inden-1-yl)isonicotinamide]	2.5	10.3
Cc1cc(C(=O)N[C@@H]2CCc3cc(-c4nc(C)no4)ccc32)ccn1 [Compound 131, (R)-2-methyl-N-(5-(3-methyl-1,2,4-oxadiazol-5-yl)-2,3-dihydro-1H-inden-1-yl)isonicotinamide]	1.4	5.4

Further lines, results first:

CDMF75 IC15 [µM]	IC50 [µM]	Compound
3.0	13.4	Cc1nc(-c2ccc3c(c2)CCC3NC(=O)Nc2cncnc2)no1 (stereo not shown) [Compound 96, 1-(5-(5-methyl-1,2,4-oxadiazol-3-yl)-2,3-dihydro-1H-inden-1-yl)-3-(pyrimidin-5-yl)urea]
2.0	7.8	Cc1nc(-c2ccc3c(c2)CCC3NC(=O)Nc2cccnn2)no1 (stereo not shown) [Compound 97, 1-(5-(5-methyl-1,2,4-oxadiazol-3-yl)-2,3-dihydro-1H-inden-1-yl)-3-(pyridazin-3-yl)urea]
13.1	> 39.2	Cc1nc(-c2ccc3c(c2)CCC3NC(=O)Nc2ccncn2)no1 (stereo not shown) [Compound 98, 1-(5-(5-methyl-1,2,4-oxadiazol-3-yl)-2,3-dihydro-1H-inden-1-yl)-3-(pyrimidin-4-yl)urea]
0.3	1.1	Cc1cc(C(=O)N[C@@H]2CCc3cc(-c4noc(C(F)F)n4)ccc32)n(C)n1 [Compound 101, (R)-N-(5-(5-(difluoromethyl)-1,2,4-oxadiazol-3-yl)-2,3-dihydro-1H-inden-1-yl)-1,3-dimethyl-1H-pyrazole-5-carboxamide]
2.2	8.9	Cc1nc(-c2ccc3c(c2)CCC3NC(=O)c2nocc2C)no1 (stereo not shown) [Compound 105, 4-methyl-N-(5-(5-methyl-1,2,4-oxadiazol-3-yl)-2,3-dihydro-1H-inden-1-yl)isoxazole-3-carboxamide]
0.8	2.8	Cc1cc(C(=O)N[C@@H]2CCc3cc(-c4noc(C)n4)ccc32)n(C)n1 [Compound 106, (R)-1,3-dimethyl-N-(5-(5-methyl-1,2,4-oxadiazol-3-yl)-2,3-dihydro-1H-inden-1-yl)-1H-pyrazole-5-carboxamide]
0.5	1.7	Cc1nc(-c2ccc3c(c2)CC[C@H]3NC(=O)c2ccnn2C)no1 [Compound 107, (R)-1-methyl-N-(5-(5-methyl-1,2,4-oxadiazol-3-yl)-2,3-dihydro-1H-inden-1-yl)-1H-pyrazole-5-carboxamide]
1.9	7.1	Cc1nc(-c2ccc3c(c2)CCC3NC(=O)Nc2ccccn2)no1 (stereo not shown) [Compound 109, 1-(5-(5-methyl-1,2,4-oxadiazol-3-yl)-2,3-dihydro-1H-inden-1-yl)-3-(pyridin-2-yl)urea]
39.2	> 39.2	Cc1nc(-c2ccc3c(c2)CCC3NC(=O)Nc2ncccn2)no1 (stereo not shown) [Compound 110, 1-(5-(5-methyl-1,2,4-oxadiazol-3-yl)-2,3-dihydro-1H-inden-1-yl)-3-(pyrimidin-2-yl)urea]
1.1	3.7	Cc1nc(-c2ccc3c(c2)CC[C@H]3NC(=O)c2cn(C)nc2C)no1 [Compound 111, (R)-1,3-dimethyl-N-(5-(5-methyl-1,2,4-oxadiazol-3-yl)-2,3-dihydro-1H-inden-1-yl)-1H-pyrazole-4-carboxamide]
1.5	5.2	Cc1nc(-c2ccc3c(c2)CC[C@H]3NC(=O)c2oc(C)nc2C)no1 [Compound 112, (R)-2,4-dimethyl-N-(5-(5-methyl-1,2,4-oxadiazol-3-yl)-2,3-dihydro-1H-inden-1-yl)oxazole-5-carboxamide]
0.3	1.3	Cc1nc(-c2ccc3c(c2)CC[C@H]3NC(=O)c2oncc2C)no1 [Compound 113, (R)-4-methyl-N-(5-(5-methyl-1,2,4-oxadiazol-3-yl)-2,3-dihydro-1H-inden-1-yl)isoxazole-5-carboxamide]
39.2	> 39.2	Cc1nc(-c2ccc3c(c2)CCC3NC(=O)c2ncn(C)n2)no1 (stereo not shown) [Compound 119, 1-methyl-N-(5-(5-methyl-1,2,4-oxadiazol-3-yl)-2,3-dihydro-1H-inden-1-yl)-1H-1,2,4-triazole-3-carboxamide]
2.4	9.8	Cc1nc(-c2ccc3c(c2)CCC3NC(=O)c2ncnn2C)no1 (stereo not shown) [Compound 120, 1-methyl-N-(5-(5-methyl-1,2,4-oxadiazol-3-yl)-2,3-dihydro-1H-inden-1-yl)-1H-1,2,4-triazole-5-carboxamide]
1.0	3.1	Cc1nc(-c2ccc3c(c2)OCC3NC(=O)c2ccnn2C)no1 (stereo not shown) [Compound 121, 1-methyl-N-(6-(5-methyl-1,2,4-oxadiazol-3-yl)-2,3-dihydrobenzofuran-3-yl)-1H-pyrazole-5-carboxamide]
0.5	1.8	Cc1nc(-c2ccc3c(c2)OC[C@H]3NC(=O)c2ccnn2C)no1 [Compound 122, (S)-1-methyl-N-(6-(5-methyl-1,2,4-oxadiazol-3-yl)-2,3-dihydrobenzofuran-3-yl)-1H-pyrazole-5-carboxamide]
2.6	12.2	Cc1noc(C(=O)NC2CCc3cc(-c4noc(C)n4)ccc32)n1 (stereo not shown) [Compound 128, 3-methyl-N-(5-(5-methyl-1,2,4-oxadiazol-3-yl)-2,3-dihydro-1H-inden-1-yl)-1,2,4-oxadiazole-5-carboxamide]
